Results taken from publication PMC4804240, “Crystal structure of the vicilin from Solanum melongena reveals existence of different anionic ligands in structurally similar pockets” (Scientific Reports, 2016).

Tests used:
SM80.1 = target: T1, SM80.1 (Solanum virginianum, UniProt A0A158RFR1); experiment: X-ray crystal structure, […] Å; format: binding; settings: crystals from PEG 3350, sodium malonate, 25°C
T1 construct: native protein from seeds (ammonium sulphate fraction, gel filtration); 45 kDa band; homotrimer; 392 residues in structure
T1 sequence (A0A158RFR1 1-392): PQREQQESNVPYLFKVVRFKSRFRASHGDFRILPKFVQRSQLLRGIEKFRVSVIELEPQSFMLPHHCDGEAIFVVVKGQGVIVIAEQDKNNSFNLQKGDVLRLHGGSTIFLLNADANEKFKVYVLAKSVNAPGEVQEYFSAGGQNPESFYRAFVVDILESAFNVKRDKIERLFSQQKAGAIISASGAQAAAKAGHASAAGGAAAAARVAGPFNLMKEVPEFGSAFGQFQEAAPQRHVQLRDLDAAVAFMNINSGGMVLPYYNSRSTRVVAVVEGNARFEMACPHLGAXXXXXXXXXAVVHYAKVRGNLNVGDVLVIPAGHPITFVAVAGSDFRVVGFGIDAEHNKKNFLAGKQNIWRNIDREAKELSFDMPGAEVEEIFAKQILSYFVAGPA

[1] = target: SM80.1, 7S vicilin from Solanum melongena (eggplant) seeds (Solanum melongena); experiment: crystal structure; R32 crystal form, 1.5 A; one monomer in the asymmetric unit, trimer formed around the threefold crystallographic axis; crystals grown in 10% (w/v) PEG 3350, 1.5 M-2 M sodium malonate, hanging drop, 25°C

O=C1CC[C@@H](C(=O)O)N1 [PCA, pyroglutamate]
X-ray crystal structure, 1.5 Å (SM80.1; co-purified endogenous ligand, N-terminal beta-barrel pocket (His65, Cys67)): The N-terminal domain has cyclic lactam of glutamate, called pyroglutamate.

CC(=O)O [ACT, acetate]
X-ray crystal structure, 1.5 Å (SM80.1; bound without being listed in crystallisation mix, C-terminal beta-barrel pocket (Tyr260, Asn262, Arg267, Lys346)): Acetate moiety was present in the corresponding pocket in the C-terminal domain

SM80.1, 7S vicilin from Solanum melongena (eggplant) seeds (natural protein)
stoichiometry N [1]: 3
